From patent US10538535B2, “Antitumoral compounds” (priority 2017, dated 2020)

What was measured:
[1] = MTD (Maximum Tolerated Dose) determination, single iv administration; format: in vivo; settings: female, mouse, in vivo; mice; iv/SD
Excerpt: (§1) Female CD-1 or Athymic Nude-Fox1 nu/nu mice (Envigo) were utilized for all experiments. […] Animals were acclimated for five days prior to being individually tattoo-identified. Animal protocols were reviewed and approved according to the regional Institutional Animal Care and Use Committees.
(§2) Mice were randomly allocated into experimental groups and intravenously administered, once for the MTD (Maximum Tolerated Dose) determination or one administration a week during three consecutive weeks, for the MTMD (Maximum Tolerated Multiple Dose) determination study. The animals were administered with white formulation or with compound dissolved in the experimental formulation at different concentrations. The volume administered was always 10 mL/kg. Once administered, animals were monitored for clinical signs of systemic toxicity, changes in body weight and mortality up to 14 days after the administration.

[2] = MTMD (Maximum Tolerated Multiple Dose) determination, iv weekly x3; format: in vivo; settings: mice; iv/Q7dx3
Excerpt: as §1, §2

[3] = system: H82 tumors; experiment: In vivo xenograft, human lung (SCLC) H82
Description: Female athymic nu/nu mice (Harlan Laboratories Models, S. L. Barcelona, Spain or Envigo, Spain) were utilized for all experiments. Animal were housed in individually ventilated cages Sealsafe® Plus, Techniplast S.P.A.), up to ten per cage on a 12-hour light-dark cycle at 21-23° C. and 40-60% humidity. Mice were allowed free access to irradiated standard rodent diet (Tecklad 2914C) and sterilized water. Animals were acclimated for at least 5 days prior to tumor implantation with a tumor cell suspension.
H82 cells were grown as a suspension and maintained by addition of fresh medium, as the cell density increases, every 2 to 3 days. Every week, culture was reestablished by centrifugation of the suspension with subsequent resuspension in fresh medium at a concentration of 1×10^5 cell/ml. Animals were subcutaneously implanted (on the right flank using 26 G needle and a 1 cc syringe) at 4-6 weeks of age with 5×10^6 H82 cells, suspended in 0.05 mL of a solution consisting of 50% Matrigel® (Corning Incorporated Life Sciences) and 50% medium without serum or antibiotics.
(§3) Treatment tolerability was assessed by monitoring body weight evolution, clinical signs of systemic toxicity, as well as evidences of local damage in the injection site.
In xenograft studies with other cell lines: • Tumor volume was calculated using the equation (a·b^2)/2, where a: length (longest diameter) and b: width (shortest diameter) were measured in mm by using digital caliper (Fowler Sylvac, S235PAT).
(§4) Treatments producing >20% lethality and/or 20% net body weight loss were considered toxic.
Tables and figures summarize the data obtained from complete experimental groups, i.e. those groups keeping the initial number of animals, n=8-10.

[4] = system: HT1080 tumors; experiment: In vivo xenograft, human fibrosarcoma HT1080; settings: iv weekly, 32 and ET-736 0.5 mg/Kg
Description: Female athymic nu/nu mice (Harlan Laboratories Models, S. L. Barcelona, Spain or Envigo, Spain) were utilized for all experiments. Animal were housed in individually ventilated cages Sealsafe® Plus, Techniplast S.P.A.), up to ten per cage on a 12-hour light-dark cycle at 21-23° C. and 40-60% humidity. […] Animals were acclimated for at least 5 days prior to tumor implantation with a tumor cell suspension.
HT1080 cells were maintained in vitro at 37° C. with 5% CO2 in Minimum Essential Medium Eagle (MEME) (Sigma-Aldrich, Co). Each animal was orthotopically implanted into gastroecnemius muscle by an intramuscular injection using a 26 G needle and a 1 cc syringe at 4-6 weeks of age, with 10×10^6 HT1080 cells, suspended in serum free medium, without antibiotics.
as §3
In xenograft studies with HT1080 cell line: • Total diameter (tumor+leg) measurements were determined by using digital caliper (Fowler Sylvac, S235PAT).
as §4

[5] = system: P388 lymphoma; settings: cited from earlier work
[6] = system: B16 melanoma; settings: cited from earlier work
[7] = system: Lewis lung carcinoma; settings: cited from earlier work
[8] = Table 64, Day 0, iv weekly, 32 and ET-736 0.5 mg/Kg
[9] = Table 64, Day 2, iv weekly, 32 and ET-736 0.5 mg/Kg
[10] = Table 64, Day 5, iv weekly, 32 and ET-736 0.5 mg/Kg
[11] = Table 64, Day 7, iv weekly, 32 and ET-736 0.5 mg/Kg
[12] = Table 64, Day 9, iv weekly, 32 and ET-736 0.5 mg/Kg
[13] = Table 64, Day 12, iv weekly, 32 and ET-736 0.5 mg/Kg
[14] = Table 64, Day 14, iv weekly, 32 and ET-736 0.5 mg/Kg

COc1c(C)cc2c(c1O)[C@@H]1[C@@H]3[C@@H]4SC[C@]5(N[C@H](C)Cc6c5[nH]c5ccccc65)C(=O)OC[C@@H](c5c6c(c(C)c(OC(C)=O)c54)OCO6)N3[C@@H](O)[C@H](C2)N1C [C]
MTD at 14 days [1]: 3 mg/kg | MTMD [2]: 3.0 mg/kg | Median Tumor Volume ([3]; Table 50, Day 0, iv weekly, 39-S […], C 3 mg/Kg): 170.5 mm^3 | Median Tumor Volume ([3]; Table 50, Day 2, iv weekly, 39-S […], C 3 mg/Kg): 265.3 mm^3 | Median Tumor Volume ([3]; Table 50, Day 5, iv weekly, 39-S […], C 3 mg/Kg): 488.7 mm^3 | Median Tumor Volume ([3]; Table 50, Day 7, iv weekly, 39-S […], C 3 mg/Kg): 760.0 mm^3 | Median Tumor Volume ([3]; Table 50, Day 9, iv weekly, 39-S […], C 3 mg/Kg): 899.5 mm^3 | Median Tumor Volume ([3]; Table 50, Day 12, iv weekly, 39-S […], C 3 mg/Kg): 1038.5 mm^3 | Median Tumor Volume ([3]; Table 50, Day 14, iv weekly, 39-S […], C 3 mg/Kg): 1213.4 mm^3 | Median Tumor Volume ([3]; Table 50, Day 16, iv weekly, 39-S […], C 3 mg/Kg): 1256.4 mm^3 | Median Tumor Volume ([3]; Table 50, Day 19, iv weekly, 39-S […], C 3 mg/Kg): 1741.5 mm^3 | Median Tumor Volume ([3]; Table 50, Day 21, iv weekly, 39-S […], C 3 mg/Kg): 1878.8 mm^3 | Median Tumor Volume ([3]; Table 50, Day 23, iv weekly, 39-S […], C 3 mg/Kg): 2057.0 mm^3

COc1c(C)cc2c(c1O)[C@@H]1[C@@H]3[C@@H]4SC[C@]5(NCCc6c5oc5ccccc65)C(=O)OC[C@@H](c5c6c(c(C)c(OC(C)=O)c54)OCO6)N3[C@@H](O)[C@H](C2)N1C [Compound 32]
MTD at 14 days [1]: 0.5 mg/kg | Total diameter (tumor + leg) ([4]; Table 60, Day 2): 8.9 mm | Total diameter (tumor + leg) ([4]; Table 60, Day 5): 8.2 mm | Total diameter (tumor + leg) ([4]; Table 60, Day 7): 8.8 mm | Total diameter (tumor + leg) ([4]; Table 60, Day 9): 10.0 mm | Total diameter (tumor + leg) ([4]; Table 60, Day 12): 8.8 mm | Total diameter (tumor + leg) ([4]; Table 60, Day 14): 10.8 mm | Total diameter (tumor + leg) ([4]; Table 60, Day 16): 11.8 mm | Total diameter (tumor + leg) ([4]; Table 60, Day 19): 12.0 mm | Total diameter (tumor + leg) ([4]; Table 60, Day 21): 14.0 mm | Total diameter (tumor + leg) ([4]; Table 60, Day 23): 13.8 mm | Total diameter (tumor + leg) ([4]; Table 60, Day 27): 13.6 mm | Total diameter (tumor + leg) ([4]; Table 60, Day 30): 15.5 mm | Total diameter (tumor + leg) ([4]; Table 60, Day 33): 18.0 mm | MTMD [2]: 0.5 mg/kg | Median Tumor Volume [3, 8]: 171.6 mm^3 | Median Tumor Volume [3, 9]: 309.4 mm^3 | Median Tumor Volume [3, 10]: 485.0 mm^3 | Median Tumor Volume [3, 11]: 708.4 mm^3 | Median Tumor Volume [3, 12]: 972.6 mm^3 | Median Tumor Volume [3, 13]: 1101.6 mm^3 | Median Tumor Volume [3, 14]: 1339.6 mm^3 | Median Tumor Volume ([3]; Table 64, Day 16, iv weekly, 32 and ET-736 0.5 mg/Kg): 1430.3 mm^3 | Median Tumor Volume ([3]; Table 64, Day 19, iv weekly, 32 and ET-736 0.5 mg/Kg): 1885.7 mm^3

COc1c(C)cc2c(c1O)[C@@H]1[C@@H]3[C@@H]4SC[C@]5(N[C@@H](C)Cc6c5[nH]c5ccccc65)C(=O)OC[C@@H](c5c6c(c(C)c(OC(C)=O)c54)OCO6)N3[C@@H](O)[C@H](C2)N1C [D]
Median Tumor Volume ([3]; Table 33, Day 0.0, iv Days 0, 7, 14, 12-R 0.05 mg/kg, Compound D 0.5 mg/kg): 169.4 mm^3 | Median Tumor Volume ([3]; Table 33, Day 2.0, iv Days 0, 7, 14, 12-R 0.05 mg/kg, Compound D 0.5 mg/kg): 340.6 mm^3 | Median Tumor Volume ([3]; Table 33, Day 5.0, iv Days 0, 7, 14, 12-R 0.05 mg/kg, Compound D 0.5 mg/kg): 443.3 mm^3 | Median Tumor Volume ([3]; Table 33, Day 7.0, iv Days 0, 7, 14, 12-R 0.05 mg/kg, Compound D 0.5 mg/kg): 496.2 mm^3 | Median Tumor Volume ([3]; Table 33, Day 9.0, iv Days 0, 7, 14, 12-R 0.05 mg/kg, Compound D 0.5 mg/kg): 614.1 mm^3 | Median Tumor Volume ([3]; Table 33, Day 12.0, iv Days 0, 7, 14, 12-R 0.05 mg/kg, Compound D 0.5 mg/kg): 665.5 mm^3 | Median Tumor Volume ([3]; Table 33, Day 14.0, iv Days 0, 7, 14, 12-R 0.05 mg/kg, Compound D 0.5 mg/kg): 1041.6 mm^3 | Median Tumor Volume ([3]; Table 33, Day 16.0, iv Days 0, 7, 14, 12-R 0.05 mg/kg, Compound D 0.5 mg/kg): 1151.2 mm^3 | Median Tumor Volume ([3]; Table 33, Day 19.0, iv Days 0, 7, 14, 12-R 0.05 mg/kg, Compound D 0.5 mg/kg): 1516.7 mm^3 | Median Tumor Volume ([3]; Table 33, Day 21.0, iv Days 0, 7, 14, 12-R 0.05 mg/kg, Compound D 0.5 mg/kg): 1748.0 mm^3 | Median Tumor Volume ([3]; Table 57, Day 0, iv weekly, 47-R 0.1 mg/Kg, Compound D 0.5 mg/Kg): 169.4 mm^3 | Median Tumor Volume ([3]; Table 57, Day 2, iv weekly, 47-R 0.1 mg/Kg, Compound D 0.5 mg/Kg): 340.6 mm^3 | Median Tumor Volume ([3]; Table 57, Day 5, iv weekly, 47-R 0.1 mg/Kg, Compound D 0.5 mg/Kg): 443.3 mm^3 | Median Tumor Volume ([3]; Table 57, Day 7, iv weekly, 47-R 0.1 mg/Kg, Compound D 0.5 mg/Kg): 496.2 mm^3 | Median Tumor Volume ([3]; Table 57, Day 9, iv weekly, 47-R 0.1 mg/Kg, Compound D 0.5 mg/Kg): 614.1 mm^3 | Median Tumor Volume ([3]; Table 57, Day 12, iv weekly, 47-R 0.1 mg/Kg, Compound D 0.5 mg/Kg): 665.5 mm^3 | Median Tumor Volume ([3]; Table 57, Day 14, iv weekly, 47-R 0.1 mg/Kg, Compound D 0.5 mg/Kg): 1041.6 mm^3 | Median Tumor Volume ([3]; Table 57, Day 16, iv weekly, 47-R 0.1 mg/Kg, Compound D 0.5 mg/Kg): 1151.2 mm^3 | Median Tumor Volume ([3]; Table 57, Day 19, iv weekly, 47-R 0.1 mg/Kg, Compound D 0.5 mg/Kg): 1516.7 mm^3 | Median Tumor Volume ([3]; Table 57, Day 21, iv weekly, 47-R 0.1 mg/Kg, Compound D 0.5 mg/Kg): 1748.0 mm^3

COc1c(C)cc2c(c1O)[C@@H]1[C@@H]3[C@@H]4SC[C@]5(NCCc6c5[nH]c5ccccc65)C(=O)OC[C@@H](c5c6c(c(C)c(OC(C)=O)c54)OCO6)N3[C@@H](O)[C@H](C2)N1C [ET-736, Ecteinascidin 736]
Total diameter (tumor + leg) ([4]; Table 60, Day 2): 8.3 mm | Total diameter (tumor + leg) ([4]; Table 60, Day 5): 7.1 mm | Total diameter (tumor + leg) ([4]; Table 60, Day 7): 7.6 mm | Total diameter (tumor + leg) ([4]; Table 60, Day 9): 7.4 mm | Total diameter (tumor + leg) ([4]; Table 60, Day 12): 7.0 mm | Total diameter (tumor + leg) ([4]; Table 60, Day 14): 7.1 mm | Total diameter (tumor + leg) ([4]; Table 60, Day 16): 7.4 mm | Total diameter (tumor + leg) ([4]; Table 60, Day 19): 8.4 mm | Total diameter (tumor + leg) ([4]; Table 60, Day 21): 8.6 mm | Total diameter (tumor + leg) ([4]; Table 60, Day 23): 10.0 mm | Total diameter (tumor + leg) ([4]; Table 60, Day 27): 10.9 mm | Total diameter (tumor + leg) ([4]; Table 60, Day 30): 13.2 mm | Total diameter (tumor + leg) ([4]; Table 60, Day 33): 14.3 mm | Total diameter (tumor + leg) ([4]; Table 60, Day 35): 15.2 mm | Total diameter (tumor + leg) ([4]; Table 60, Day 37): 15.8 mm | Total diameter (tumor + leg) ([4]; Table 60, Day 40): 16.6 mm | Total diameter (tumor + leg) ([4]; Table 60, Day 42): 18.0 mm | MTMD [2]: 0.5 mg/kg | protection of mice in vivo [5]: protects mice in vivo at very low concentrations | protection of mice in vivo [6]: protects mice in vivo at very low concentrations | Median Tumor Volume [3, 8]: 170.0 mm^3 | Median Tumor Volume [3, 9]: 334.4 mm^3 | Median Tumor Volume [3, 10]: 539.4 mm^3 | Median Tumor Volume [3, 11]: 836.4 mm^3 | Median Tumor Volume [3, 12]: 1013.1 mm^3 | Median Tumor Volume [3, 13]: 1290.9 mm^3 | Median Tumor Volume [3, 14]: 1648.0 mm^3 | protection of mice in vivo [7]: protects mice in vivo at very low concentrations
